Patent publication US20240109865A1, “INDAZOLE COMPOUNDS AS KINASE INHIBITORS” (TYRA BIOSCIENCES, INC., priority 2020, published 2024)

Tests used:
Experiment in all cases: Kinase assay, binding constants (Kd), kinase-tagged T7 phage, qPCR
[1] = target: FGFR1 (Homo sapiens (Human), UniProt P11362)
Description: (§1) Kinase-tagged T7 phage strains were prepared in an E. coli host derived from the BL21 strain. E. coli were grown to log-phase and infected with T7 phage and incubated with shaking at 32° C. until lysis. The lysates were centrifuged and filtered to remove cell debris. Streptavidin-coated magnetic beads were treated with biotinylated small molecule ligands for 30 minutes at room temperature to generate affinity resins for kinase assays. The liganded beads were blocked with excess biotin and washed with blocking buffer SeaBlock (Pierce), […], 1 mM DTT to remove unbound ligand and to reduce non-specific binding.
(§2) Test compounds were prepared as 111λ stocks in 10000 DMS0. Kds were determined using an 11-point 3-fold compound dilution series with three DMSO control points. […] The compounds were then diluted directly into the assays such that the final concentration of DMSO was 0.9%. All reactions performed in polypropylene 384-well plate. Each was a final volume of 0.02 ml. […] The beads were then re-suspended in elution buffer (1×PBS, 0.05% Tween […] non-biotinylated affinity ligand) and incubated at room temperature with shaking for 30 minutes. The kinase concentration in the eluates was measured by qPCR.
(§3) Binding constants were calculated with a standard dose-response curve using the Hill equation: […]
(§4) The Hill Slope was set to −1. Curves were fitted using a non-linear least square fit with the Levenberg-Marquardt algorithm.

[2] = target: FGFR2 (Homo sapiens (Human), UniProt P21802)
Description: as §1, §2, §3, §4

[3] = target: FGFR3 (Homo sapiens (Human), UniProt P22607)
Description: as §1, §2, §3, §4

[4] = target: FGFR3 (V555M) (Homo sapiens (Human), UniProt P22607, V555M); conditions: V555M mutant
Description: as §1, §2, §3, §4

[5] = target: FGFR4 (Homo sapiens (Human), UniProt P22455)
Description: as §1, §2, §3, §4

Sequence of FGFR2 (P21802 22-821): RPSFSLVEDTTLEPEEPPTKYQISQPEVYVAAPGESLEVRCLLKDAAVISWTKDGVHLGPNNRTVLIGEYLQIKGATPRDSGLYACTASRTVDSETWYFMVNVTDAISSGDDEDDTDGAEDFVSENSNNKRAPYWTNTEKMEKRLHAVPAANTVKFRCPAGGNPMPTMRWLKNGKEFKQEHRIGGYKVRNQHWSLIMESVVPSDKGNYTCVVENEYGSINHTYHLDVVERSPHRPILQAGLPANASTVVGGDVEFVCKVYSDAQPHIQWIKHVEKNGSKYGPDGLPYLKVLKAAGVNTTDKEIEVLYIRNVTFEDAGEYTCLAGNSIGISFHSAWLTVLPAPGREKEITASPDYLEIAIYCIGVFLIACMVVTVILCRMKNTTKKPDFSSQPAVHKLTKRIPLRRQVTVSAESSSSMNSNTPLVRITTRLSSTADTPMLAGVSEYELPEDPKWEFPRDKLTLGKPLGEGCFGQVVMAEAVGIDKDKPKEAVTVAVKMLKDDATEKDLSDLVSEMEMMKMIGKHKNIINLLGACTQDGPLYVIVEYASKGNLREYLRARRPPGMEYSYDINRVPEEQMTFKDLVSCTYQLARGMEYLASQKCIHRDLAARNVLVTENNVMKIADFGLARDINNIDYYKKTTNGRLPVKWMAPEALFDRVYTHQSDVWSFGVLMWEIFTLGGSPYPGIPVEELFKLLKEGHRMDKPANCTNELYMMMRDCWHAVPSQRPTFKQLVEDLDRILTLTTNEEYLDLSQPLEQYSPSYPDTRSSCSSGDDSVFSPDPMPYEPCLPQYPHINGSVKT
Sequence of FGFR4 (P22455 22-802): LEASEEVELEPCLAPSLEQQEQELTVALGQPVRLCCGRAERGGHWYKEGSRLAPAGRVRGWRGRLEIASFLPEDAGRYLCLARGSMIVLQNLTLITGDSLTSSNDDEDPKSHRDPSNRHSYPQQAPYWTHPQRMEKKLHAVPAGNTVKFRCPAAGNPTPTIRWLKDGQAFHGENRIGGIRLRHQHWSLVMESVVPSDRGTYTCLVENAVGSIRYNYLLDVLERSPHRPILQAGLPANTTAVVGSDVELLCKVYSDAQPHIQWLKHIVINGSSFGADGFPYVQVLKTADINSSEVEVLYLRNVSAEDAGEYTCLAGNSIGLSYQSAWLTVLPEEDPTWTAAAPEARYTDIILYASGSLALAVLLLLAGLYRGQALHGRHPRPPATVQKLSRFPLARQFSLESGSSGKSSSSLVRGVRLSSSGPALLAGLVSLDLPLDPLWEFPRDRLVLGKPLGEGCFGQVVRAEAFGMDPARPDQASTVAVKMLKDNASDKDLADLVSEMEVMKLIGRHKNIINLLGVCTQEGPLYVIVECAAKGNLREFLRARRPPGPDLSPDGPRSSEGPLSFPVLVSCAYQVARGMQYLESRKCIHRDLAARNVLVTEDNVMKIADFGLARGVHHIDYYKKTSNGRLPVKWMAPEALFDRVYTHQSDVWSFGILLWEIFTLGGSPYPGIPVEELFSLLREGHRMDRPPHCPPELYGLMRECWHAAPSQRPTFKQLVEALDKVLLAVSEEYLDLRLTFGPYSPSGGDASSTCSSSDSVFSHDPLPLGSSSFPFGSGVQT
Sequence of FGFR3 (P22607 23-806): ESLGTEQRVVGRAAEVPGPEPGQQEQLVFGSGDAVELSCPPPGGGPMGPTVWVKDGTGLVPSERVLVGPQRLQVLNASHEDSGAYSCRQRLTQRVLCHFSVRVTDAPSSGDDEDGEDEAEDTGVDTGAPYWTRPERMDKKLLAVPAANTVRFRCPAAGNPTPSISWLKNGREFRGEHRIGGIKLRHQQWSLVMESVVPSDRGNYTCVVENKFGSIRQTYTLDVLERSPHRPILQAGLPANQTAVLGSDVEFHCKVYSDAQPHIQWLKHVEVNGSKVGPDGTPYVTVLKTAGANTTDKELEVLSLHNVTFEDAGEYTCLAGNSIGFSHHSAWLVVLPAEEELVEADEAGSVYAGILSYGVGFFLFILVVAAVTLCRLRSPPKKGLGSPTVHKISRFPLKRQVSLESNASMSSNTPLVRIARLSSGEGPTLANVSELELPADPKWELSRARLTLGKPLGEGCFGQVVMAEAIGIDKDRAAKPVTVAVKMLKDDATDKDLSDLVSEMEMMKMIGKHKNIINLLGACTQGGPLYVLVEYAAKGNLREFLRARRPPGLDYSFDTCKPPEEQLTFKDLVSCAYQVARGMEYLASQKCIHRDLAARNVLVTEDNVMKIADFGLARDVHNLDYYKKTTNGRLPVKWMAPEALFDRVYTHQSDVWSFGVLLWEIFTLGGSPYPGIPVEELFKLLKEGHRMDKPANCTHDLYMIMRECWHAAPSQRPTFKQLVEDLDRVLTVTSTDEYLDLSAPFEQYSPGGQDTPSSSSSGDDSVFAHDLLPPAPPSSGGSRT
Sequence of FGFR1 (P11362 22-822): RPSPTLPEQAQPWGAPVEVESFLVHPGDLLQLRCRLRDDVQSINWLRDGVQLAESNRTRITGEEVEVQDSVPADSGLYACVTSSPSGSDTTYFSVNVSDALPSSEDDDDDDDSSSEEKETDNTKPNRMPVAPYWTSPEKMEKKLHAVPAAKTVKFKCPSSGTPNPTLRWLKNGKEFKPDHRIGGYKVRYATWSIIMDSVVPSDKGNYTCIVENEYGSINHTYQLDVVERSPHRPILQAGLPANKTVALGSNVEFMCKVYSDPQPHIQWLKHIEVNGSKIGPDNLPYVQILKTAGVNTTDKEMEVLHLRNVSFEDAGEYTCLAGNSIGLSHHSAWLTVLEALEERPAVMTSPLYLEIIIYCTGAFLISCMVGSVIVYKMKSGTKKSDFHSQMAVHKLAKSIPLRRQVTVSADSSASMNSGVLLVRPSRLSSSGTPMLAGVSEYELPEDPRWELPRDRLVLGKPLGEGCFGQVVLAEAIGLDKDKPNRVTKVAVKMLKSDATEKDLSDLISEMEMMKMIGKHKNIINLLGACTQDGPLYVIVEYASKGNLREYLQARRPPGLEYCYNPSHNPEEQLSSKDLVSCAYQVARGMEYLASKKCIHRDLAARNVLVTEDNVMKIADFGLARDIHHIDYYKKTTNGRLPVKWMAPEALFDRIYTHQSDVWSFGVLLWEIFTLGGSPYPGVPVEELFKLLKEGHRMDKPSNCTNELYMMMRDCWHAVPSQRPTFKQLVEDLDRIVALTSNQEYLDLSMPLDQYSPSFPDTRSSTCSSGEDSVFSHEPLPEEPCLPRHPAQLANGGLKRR
Sequence of FGFR3 (V555M) (P22607 23-806 V555M): as the sequence (P22607 23-806) above, with V533M counted along it

Row | SMILES | Kd [1] | Kd [2] | Kd [3] | Kd [4] | Kd [5]
1 | C[C@@H](Oc1ccc2[nH]nc(-c3cnn(C4CCN(S(C)(=O)=O)CC4)c3)c2c1)c1c(Cl)cncc1Cl [Example 66, 5-[(1R)-1-(3,5-dichloro-4-pyridyl)ethoxy]-3-[1-(1-methylsulfonyl-4-piperidyl)pyrazol-4-yl]-1H-indazole] | 1 to 20 nM | 1 to 20 nM | 1 to 20 nM | 1 to 20 nM | 1 to 20 nM
2 | C[C@@H](Oc1ccc2[nH]nc(-c3ccc(N4CC5(CCN(S(C)(=O)=O)CC5)OC4=O)nc3)c2c1)c1c(Cl)cncc1Cl [Example 76, 3-[5-[5-[(1R)-1-(3,5-dichloro-4-pyridyl)ethoxy]-1H-indazol-3-yl]-2-pyridyl]-8-methylsulfonyl-1-oxa-3,8-diazaspiro[4.5]decan-2-one] | 20 to 100 nM | 20 to 100 nM | 1 to 20 nM | 1 to 20 nM | 1 to 20 nM
3 | C[C@@H](Oc1ccc2[nH]nc(-c3cnn(C4CCN(C(=O)CN(C)C)CC4)c3)c2c1)c1c(Cl)cncc1Cl [Example 81, 1-[4-[4-[5-[(1R)-1-(3,5-dichloro-4-pyridyl)ethoxy]-1H-indazol-3-yl]pyrazol-1-yl]-1-piperidyl]-2-(dimethylamino)ethanone] | 1 to 20 nM | 1 to 20 nM | 1 to 20 nM | 1 to 20 nM | 1 to 20 nM
4 | CC(C)N1CCC(n2cc(-c3n[nH]c4ccc(O[C@H](C)c5c(Cl)cncc5Cl)cc34)cn2)CC1 [Example 83, 5-[(1R)-1-(3,5-dichloro-4-pyridyl)ethoxy]-3-[1-(1-isopropyl-4-piperidyl)pyrazol-4-yl]-1H-indazole] | 1 to 20 nM | 1 to 20 nM | 1 to 20 nM | 1 to 20 nM | 20 to 100 nM
5 | CC(C)N1CC[C@@H](n2cc(-c3n[nH]c4ccc(O[C@H](C)c5c(Cl)cncc5Cl)cc34)cn2)C1 [Example 84, 5-[(1R)-1-(3,5-dichloro-4-pyridyl)ethoxy]-3-[(1R)-1-(1-isopropylpyrrolidin-3-yl)pyrazol-4-yl]-1H-indazole] | 1 to 20 nM | 1 to 20 nM | 1 to 20 nM | 1 to 20 nM | 20 to 100 nM
6 | C[C@@H](Oc1ccc2[nH]nc(-c3cnn(C4CNC4)c3)c2c1)c1c(Cl)cncc1Cl [Example 85, 3-[1-(azetidin-3-yl)pyrazol-4-yl]-5-[(1R)-1-(3,5-dichloro-4-pyridyl)ethoxy]-1H-indazole] | 1 to 20 nM | 1 to 20 nM | 1 to 20 nM | 1 to 20 nM | 1 to 20 nM
7 | CC(C)N1CC(n2cc(-c3n[nH]c4ccc(O[C@H](C)c5c(Cl)cncc5Cl)cc34)cn2)C1 [Example 86, 5-[(1R)-1-(3,5-dichloro-4-pyridyl)ethoxy]-3-[1-(1-isopropylazetidin-3-yl)pyrazol-4-yl]-1H-indazole] | 1 to 20 nM | 1 to 20 nM | 1 to 20 nM | 1 to 20 nM | 1 to 20 nM
8 | CCN1CC[C@H](n2cc(-c3n[nH]c4ccc(O[C@H](C)c5c(Cl)cncc5Cl)cc34)cn2)C1 [Example 89, 5-[(1R)-1-(3,5-dichloro-4-pyridyl)ethoxy]-3-[1-[(3S)-1-ethylpyrrolidin-3-yl]pyrazol-4-yl]-1H-indazole] | 1 to 20 nM | 1 to 20 nM | 1 to 20 nM | 1 to 20 nM | 20 to 100 nM
9 | C[C@@H](Oc1ccc2[nH]nc(-c3ccc(N4CC5(CCNCC5)C4)nc3)c2c1)c1c(Cl)cncc1Cl [Example 110, 3-[6-(2,7-diazaspiro[3.5]nonan-2-yl)-3-pyridyl]-5-[(1R)-1-(3,5-dichloro-4-pyridyl)ethoxy]-1H-indazole] | 1 to 20 nM | 1 to 20 nM | 1 to 20 nM | 1 to 20 nM | 1 to 20 nM
10 | CCOC(=O)N1CCC2(CC1)CN(c1ncc(-c3n[nH]c4ccc(O[C@H](C)c5c(Cl)cncc5Cl)cc34)cn1)C2 [Example 126, ethyl 2-[5-[5-[(1R)-1-(3,5-dichloro-4-pyridyl)ethoxy]-1H-indazol-3-yl]pyrimidin-2-yl]-2,7-diazaspiro[3.5]nonane-7-carboxylate] | 100 to 300 nM | 100 to 300 nM | 1 to 20 nM | 1 to 20 nM | 1 to 20 nM
11 | Cc1cnnc(C)c1[C@@H](C)Oc1ccc2[nH]nc(-c3cnc(N4CCCC4)c(C#N)c3)c2c1 [Example 173, 5-[5-[(1R)-1-(3,5-dimethylpyridazin-4-yl)ethoxy]-1H-indazol-3-yl]-2-pyrrolidin-1-yl-pyridine-3-carbonitrile] | 100 to 300 nM | – | 20 to 100 nM | 20 to 100 nM | 1 to 20 nM
12 | CCN1C2CC1CN(c1ccc(-c3n[nH]c4cc(OC)c(O[C@H](C)c5c(C)cnnc5C)cc34)cn1)C2 [Example 213, 3-(5-(5-((R)-1-(3,5-dimethylpyridazin-4-yl)ethoxy)-6-methoxy-1H-indazol-3-yl)pyridin-2-yl)-6-ethyl-3,6-diazabicyclo[3.1.1]heptane] | 1 to 20 nM | – | 1 to 20 nM | 1 to 20 nM | 1 to 20 nM
13 | C[C@@H](Oc1ccc2[nH]nc(-c3ccc(N4CC5(CCOC5)C4)nc3)c2c1)c1c(Cl)cnnc1Cl [Example 223, (R)-2-(5-(5-(1-(3,5-dichloropyridazin-4-yl)ethoxy)-1H-indazol-3-yl)pyridin-2-yl)-6-oxa-2-azaspiro[3.4]octane] | – | 100 to 300 nM | 20 to 100 nM | 20 to 100 nM | –

Next, values leading:

Row | Kd [1] | Kd [2] | Kd [3] | Kd [4] | Kd [5] | SMILES
14 | 1 to 20 nM | 1 to 20 nM | 1 to 20 nM | 1 to 20 nM | 1 to 20 nM | C[C@@H](Oc1ccc2[nH]nc(-c3ccc(N4CC5(CNC5)C4)nc3)c2c1)c1c(Cl)cncc1Cl [Example 45, 3-[6-(2,6-diazaspiro[3.3]heptan-2-yl)-3-pyridyl]-5-[(1R)-1-(3,5-dichloro-4-pyridyl)ethoxy]-1H-indazole]
15 | 20 to 100 nM | 100 to 300 nM | 20 to 100 nM | 20 to 100 nM | 20 to 100 nM | C[C@@H](Oc1ccc2[nH]nc(-c3cnc(Cl)nc3)c2c1)c1c(Cl)cncc1Cl [Example 59, 3-(2-Chloropyrimidin-5-yl)-5-[(1R)-1-(3,5-dichloro-4-pyridyl)ethoxy]-1H-indazole]
16 | 1 to 20 nM | 20 to 100 nM | 1 to 20 nM | 1 to 20 nM | 1 to 20 nM | C[C@@H](Oc1ccc2[nH]nc(-c3cnc(N4CCCNCC4)nc3)c2c1)c1c(Cl)cncc1Cl [Example 61, 3-[2-(1,4-Diazepan-1-yl)pyrimidin-5-yl]-5-[(1R)-1-(3,5-dichloro-4-pyridyl)ethoxy]-1H-indazole]
17 | 1 to 20 nM | 1 to 20 nM | 1 to 20 nM | 1 to 20 nM | 1 to 20 nM | C[C@@H](Oc1ccc2[nH]nc(-c3ccc(C4CCNCC4)nc3)c2c1)c1c(Cl)cncc1Cl [Example 69, 5-[(1R)-1-(3,5-dichloro-4-pyridyl)ethoxy]-3-[6-(4-piperidyl)-3-pyridyl]-1H-indazole]
18 | 1 to 20 nM | 1 to 20 nM | 1 to 20 nM | 1 to 20 nM | 1 to 20 nM | C[C@@H](Oc1ccc2[nH]nc(-c3ccc(N4CC5(CCN5)C4)nc3)c2c1)c1c(Cl)cncc1Cl [Example 99, 3-[6-(1,6-diazaspiro[3.3]heptan-6-yl)-3-pyridyl]-5-[(1R)-1-(3,5-dichloro-4-pyridyl)ethoxy]-1H-indazole]
19 | 20 to 100 nM | 20 to 100 nM | 1 to 20 nM | 1 to 20 nM | 1 to 20 nM | Cc1cc(-c2n[nH]c3ccc(O[C@H](C)c4c(Cl)cncc4Cl)cc23)cnc1N1CCOCC1 [Example 101, 4-[5-[5-[(1R)-1-(3,5-dichloro-4-pyridyl)ethoxy]-1H-indazol-3-yl]-3-methyl-2-pyridyl]morpholine]
20 | 20 to 100 nM | 20 to 100 nM | 1 to 20 nM | 1 to 20 nM | 1 to 20 nM | C[C@@H](Oc1ccc2[nH]nc(-c3cnc(N4CCOCC4)c(C#N)c3)c2c1)c1c(Cl)cncc1Cl [Example 102, 5-[5-[(1R)-1-(3,5-dichloro-4-pyridyl)ethoxy]-1H-indazol-3-yl]-2-morpholino-pyridine-3-carbonitrile]
21 | 1 to 20 nM | 20 to 100 nM | 1 to 20 nM | 1 to 20 nM | 1 to 20 nM | C[C@@H](Oc1ccc2[nH]nc(-c3ccc(N4CCOCC4)cn3)c2c1)c1c(Cl)cncc1Cl [Example 103, 4-[6-[5-[(1R)-1-(3,5-dichloro-4-pyridyl)ethoxy]-1H-indazol-3-yl]-3-pyridyl]morpholine]
22 | > 300 nM | > 300 nM | 100 to 300 nM | 100 to 300 nM | 20 to 100 nM | COc1cc(-c2n[nH]c3ccc(O[C@H](C)c4c(Cl)cncc4Cl)cc23)cnc1N1CCOCC1 [Example 105, 4-[5-[5-[(1R)-1-(3,5-dichloro-4-pyridyl)ethoxy]-1H-indazol-3-yl]-3-methoxy-2-pyridyl]morpholine]
23 | 1 to 20 nM | 20 to 100 nM | 1 to 20 nM | 1 to 20 nM | 1 to 20 nM | C[C@@H](Oc1ccc2[nH]nc(-c3cnc(N4CC5(CNC5)C4)nc3)c2c1)c1c(Cl)cncc1Cl [Example 118, 3-[2-(2,6-diazaspiro[3.3]heptan-2-yl)pyrimidin-5-yl]-5-[(1R)-1-(3,5-dichloro-4-pyridyl)ethoxy]-1H-indazole]
